# pIC50: −log10 of the molar value.
# Target: Btk (Homo sapiens, UniProt Q06187)
# Test: Btk in vitro inhibitory activity, acellular kinase assay (TR-FRET)
# Format: biochemical
# Experimental: Btk kinase activity is determined using a time-resolved fluorescence resonance energy transfer (TR-FRET) methodology. Measurements are performed in a reaction volume of 50 μL using 96-well assay plates. Kinase enzyme, inhibitor, ATP (at the Km for the kinase), and 1 μM peptide substrate (Biotin-AVLESEEELYSSARQ-NH2) are incubated in a reaction buffer composed of 20 mM Tris, 50 mM NaCl, MgCl2 (5-25 mM depending on the kinase), MnCl2 (0-10 mM), 1 mM DTT, 0.1 mM EDTA, 0.01% bovine serum albumin, 0.005% Tween-20, and 10% DMSO at pH 7.4 for one hour. The reaction is quenched by the addition of 1.2 equivalents of EDTA (relative to divalent cation) in 25 μL of 1× Lance buffer (Perkin-Elmer). Streptavidin-APC (Perkin-Elmer) and Eu-labeled p-Tyr100 antibody (Perkin-Elmer) in 1× Lance buffer are added in a 25 μL volume to give final concentrations of 100 nM and 2.5 nM, respectively, and the mixture is allowed to incubate for one hour. The TR-FRET signal is measured on a multimode plate reader with an excitation wavelength (λEx) of 330 nm and detection wavelengths (λEm) of 615 and 665 nm. Activity is determined by the ratio of the fluorescence at 665 nm to that at 615 nm. For each compound, enzyme activity is measured at various concentrations of compound. Negative control reactions are performed in the absence of inhibitor in replicates of six, and two no-enzyme controls were used to determine baseline fluorescence levels. Inhibition constants, Ki(app), are obtained using the program BatchKi (Kuzmic et al. (2000), Anal. Biochem. 286:45-50). IC50s are obtained according to the equation: IC50={Ki(app)/(1+[ATP]/Km^ATP)}+[E]total/2;
# For all kinases, [ATP]=Km^ATP, [Btk]total=0.5 nM and [Lck]total=6 nM.
# Sequence of Btk (Q06187 whole entry): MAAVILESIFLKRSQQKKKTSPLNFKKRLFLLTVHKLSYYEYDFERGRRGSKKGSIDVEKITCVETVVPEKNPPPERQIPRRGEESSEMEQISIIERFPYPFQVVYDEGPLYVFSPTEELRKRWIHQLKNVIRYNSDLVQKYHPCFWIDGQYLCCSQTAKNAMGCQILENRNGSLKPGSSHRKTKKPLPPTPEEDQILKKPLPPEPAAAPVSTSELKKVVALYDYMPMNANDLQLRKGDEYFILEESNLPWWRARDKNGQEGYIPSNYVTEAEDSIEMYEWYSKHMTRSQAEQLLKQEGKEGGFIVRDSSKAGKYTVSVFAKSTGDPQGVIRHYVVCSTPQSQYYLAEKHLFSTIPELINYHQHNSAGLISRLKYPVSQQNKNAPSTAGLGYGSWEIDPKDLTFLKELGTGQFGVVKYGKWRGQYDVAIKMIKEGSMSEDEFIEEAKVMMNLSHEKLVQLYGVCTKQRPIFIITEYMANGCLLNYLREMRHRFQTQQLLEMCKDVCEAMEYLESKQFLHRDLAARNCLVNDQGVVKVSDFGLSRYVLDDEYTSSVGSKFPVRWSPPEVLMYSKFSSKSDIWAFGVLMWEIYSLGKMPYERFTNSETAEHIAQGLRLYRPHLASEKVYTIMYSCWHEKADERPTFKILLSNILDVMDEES
row,Compound,pIC50
1,"CN(C/C=C/C(=O)N1CC[C@@H](n2nc(-c3ccc(Oc4ccccc4)cc3)c3c(N)ncnc32)C1)C1COC1 [Example 2f, (R,E)-1-(3-(4-amino-3-(4-phenoxyphenyl)-1H-pyrazolo[3,4-d]pyrimidin-1-yl)pyrrolidin-1-yl)-4-(methyl(oxetan-3-yl)amino)but-2-en-1-one]",> 7.00
2,"CN(C/C=C/C(=O)N1CC[C@@H](n2nc(-c3ccc(Oc4ccccc4)cc3)c3c(N)ncnc32)C1)C1CCC1 [Example 2aa, (R,E)-1-(3-(4-amino-3-(4-phenoxyphenyl)-1H-pyrazolo[3,4-d]pyrimidin-1-yl)pyrrolidin-1-yl)-4-(cyclobutyl(methyl)amino)but-2-en-1-one]",> 7.00
3,"CN(C(=O)/C=C/CN(C)C1CCC1)c1ccc(-n2nc(-c3ccc(Oc4ccccc4)cc3)c3c(N)ncnc32)cc1 [Example 7c, (E)-N-(4-(4-amino-3-(4-phenoxyphenyl)-1H-pyrazolo[3,4-d]pyrimidin-1-yl)phenyl)-4-(cyclobutyl(methyl)amino)-N-methylbut-2-enamide]",> 7.00
4,"CN(C/C=C/C(=O)N1CCC[C@@H](n2nc(-c3ccc(Oc4ccccc4)cc3)c3c(N)ncnc32)C1)C1CC1 [Example 2ae, (R,E)-1-(3-(4-amino-3-(4-phenoxyphenyl)-1H-pyrazolo[3,4-d]pyrimidin-1-yl)piperidin-1-yl)-4-(cyclopropyl(methyl)amino)but-2-en-1-one]",> 7.00
5,"CN(C/C=C/C(=O)N1CC[C@@H](n2cc(-c3ccc(Oc4ccccc4)cc3)c3c(N)ncnc32)C1)C1CC1 [Example 6b, (R,E)-1-(3-(4-amino-5-(4-phenoxyphenyl)-7H-pyrrolo[2,3-d]pyrimidin-7-yl)pyrrolidin-1-yl)-4-(cyclopropyl(methyl)amino)but-2-en-1-one]",> 7.00
6,"Nc1ncnc2c1c(-c1ccc(Oc3ccccc3)cc1)nn2[C@@H]1CCN(C(=O)/C=C/CNc2ccccn2)C1 [Example 1s, (R,E)-1-(3-(4-amino-3-(4-phenoxyphenyl)-1H-pyrazolo[3,4-d]pyrimidin-1-yl)pyrrolidin-1-yl)-4-(pyridin-2-ylamino)but-2-en-1-one]",> 7.00
7,"CN(C/C=C/C(=O)N1CC[C@@H](n2nc(-c3ccc(Oc4ccccc4)cc3)c3c(N)ncnc32)C1)C1CCCC1 [Example 2y, (R,E)-1-(3-(4-amino-3-(4-phenoxyphenyl)-1H-pyrazolo[3,4-d]pyrimidin-1-yl)pyrrolidin-1-yl)-4-(cyclopentyl(methyl)amino)but-2-en-1-one]",> 7.00
8,"CN(C/C=C/C(=O)N1CC[C@@H](n2nc(-c3ccc(Oc4ccccc4)cc3)c3c(N)ncnc32)C1)c1ccccn1 [Example 1r, (R,E)-1-(3-(4-amino-3-(4-phenoxyphenyl)-1H-pyrazolo[3,4-d]pyrimidin-1-yl)pyrrolidin-1-yl)-4-(methyl(pyridin-2-yl)amino)but-2-en-1-one]",> 7.00
9,"Nc1ncnc2c1c(-c1ccc(Oc3ccccc3)cc1)nn2[C@@H]1CCCN(C(=O)/C=C/CN[C@H]2CCOC2)C1 [Example 2k, (E)-1-((R)-3-(4-amino-3-(4-phenoxyphenyl)-1H-pyrazolo[3,4-d]pyrimidin-1-yl)piperidin-1-yl)-4-((S)-tetrahydrofuran-3-ylamino)but-2-en-1-one]",> 7.00
10,"CN(C/C=C/C(=O)N1CC[C@@H](n2nc(-c3ccc(Oc4ccccc4)cc3)c3c(N)ncnc32)C1)C1CC1 [Example 2u, (R,E)-1-(3-(4-amino-3-(4-phenoxyphenyl)-1H-pyrazolo[3,4-d]pyrimidin-1-yl)pyrrolidin-1-yl)-4-(cyclopropyl(methyl)amino)but-2-en-1-one]",> 7.00
11,"CN(C/C=C/C(=O)N1CCC[C@@H](n2nc(-c3ccc(Oc4ccccc4)cc3)c3c(N)ncnc32)C1)C1COC1 [Example 2m, (R,E)-1-(3-(4-amino-3-(4-phenoxyphenyl)-1H-pyrazolo[3,4-d]pyrimidin-1-yl)piperidin-1-yl)-4-(methyl(oxetan-3-yl)amino)but-2-en-1-one]",> 7.00
12,"Nc1ncnc2c1c(-c1ccc(Oc3ccccc3)cc1)nn2[C@@H]1CCCN(C(=O)/C=C/CNc2ccccn2)C1 [Example 1u, (R,E)-1-(3-(4-amino-3-(4-phenoxyphenyl)-1H-pyrazolo[3,4-d]pyrimidin-1-yl)piperidin-1-yl)-4-(pyridin-2-ylamino)but-2-en-1-one]",> 7.00
13,"CN(C/C=C/C(=O)N1CC[C@@H](n2nc(-c3ccc(Oc4ccccc4)cc3)c3c(N)ncnc32)C1)[C@H]1CCOC1 [Example 2d, (E)-1-((R)-3-(4-amino-3-(4-phenoxyphenyl)-1H-pyrazolo[3,4-d]pyrimidin-1-yl)pyrrolidin-1-yl)-4-(methyl((S)-tetrahydrofuran-3-yl)amino)but-2-en-1-one]",> 7.00
14,"CCN(C/C=C/C(=O)N1CC[C@@H](n2nc(-c3ccc(Oc4ccccc4)cc3)c3c(N)ncnc32)C1)C1CCC1 [Example 2ap, (R,E)-1-(3-(4-amino-3-(4-phenoxyphenyl)-1H-pyrazolo[3,4-d]pyrimidin-1-yl)pyrrolidin-1-yl)-4-(cyclobutyl(ethyl)amino)but-2-en-1-one]",> 7.00
15,"Nc1ncnc2c1c(-c1ccc(Oc3ccccc3)cc1)nn2[C@@H]1CCN(C(=O)/C=C/CNC2CCC2)C1 [Example 2ab, (R,E)-1-(3-(4-amino-3-(4-phenoxyphenyl)-1H-pyrazolo[3,4-d]pyrimidin-1-yl)pyrrolidin-1-yl)-4-(cyclobutylamino)but-2-en-1-one]",> 7.00

# More lines, now with the values ahead:
row,pIC50,Compound
1,> 7.00,"COCCN(C/C=C/C(=O)N1CC[C@@H](n2nc(-c3ccc(Oc4ccccc4)cc3)c3c(N)ncnc32)C1)C1CC1 [Example 2p, (R,E)-1-(3-(4-amino-3-(4-phenoxyphenyl)-1H-pyrazolo[3,4-d]pyrimidin-1-yl)pyrrolidin-1-yl)-4-(cyclopropyl(2-methoxyethyl)amino)but-2-en-1-one]"
2,> 7.00,"CN(C/C=C/C(=O)N1CCC[C@@H](n2nc(-c3ccc(Oc4ccccc4)cc3)c3c(N)ncnc32)C1)[C@@H]1CCOC1 [Example 2h, (E)-1-((R)-3-(4-amino-3-(4-phenoxyphenyl)-1H-pyrazolo[3,4-d]pyrimidin-1-yl)piperidin-1-yl)-4-(methyl((R)-tetrahydrofuran-3-yl)amino)but-2-en-1-one]"
3,> 7.00,"CN(C/C=C/C(=O)N1CCC[C@@H](n2nc(-c3ccc(Oc4ccccc4)cc3)c3c(N)ncnc32)C1)C1CCCC1 [Example 2ai, (R,E)-1-(3-(4-amino-3-(4-phenoxyphenyl)-1H-pyrazolo[3,4-d]pyrimidin-1-yl)piperidin-1-yl)-4-(cyclopentyl(methyl)amino)but-2-en-1-one]"
4,> 7.00,"Nc1ncnc2c1c(-c1ccc(Oc3ccccc3)cc1)nn2[C@@H]1CCCN(C(=O)/C=C/CNC2CC2)C1 [Example 2af, (R,E)-1-(3-(4-amino-3-(4-phenoxyphenyl)-1H-pyrazolo[3,4-d]pyrimidin-1-yl)piperidin-1-yl)-4-(cyclopropylamino)but-2-en-1-one]"
5,> 7.00,"CN(C/C=C/C(=O)N1CCC(n2nc(-c3ccc(Oc4ccccc4)cc3)c3c(N)ncnc32)CC1)C1CC1 [Example 5b, (E)-1-(4-(4-amino-3-(4-phenoxyphenyl)-1H-pyrazolo[3,4-d]pyrimidin-1-yl)piperidin-1-yl)-4-(cyclopropyl(methyl)amino)but-2-en-1-one]"
6,> 7.00,CN(C(=O)/C=C/CN(C)C1CC1)c1cccc(-n2cc(-c3ccc(Oc4ccccc4)cc3)c3c(N)ncnc32)c1 [Example 8a]
7,> 7.00,"CC(C)N(C/C=C/C(=O)N1CCC[C@@H](n2nc(-c3ccc(Oc4ccccc4)cc3)c3c(N)ncnc32)C1)C1CC1 [Example 2t, (R,E)-1-(3-(4-amino-3-(4-phenoxyphenyl)-1H-pyrazolo[3,4-d]pyrimidin-1-yl)piperidin-1-yl)-4-(cyclopropyl(isopropyl)amino)but-2-en-1-one]"
8,> 7.00,"CN(C/C=C/C(=O)N1CC[C@@H](n2nc(-c3ccc(Oc4ccccc4)cc3)c3c(N)ncnc32)C1)[C@@H]1CCOC1 [Example 2b, (E)-1-((R)-3-(4-amino-3-(4-phenoxyphenyl)-1H-pyrazolo[3,4-d]pyrimidin-1-yl)pyrrolidin-1-yl)-4-(methyl((R)-tetrahydrofuran-3-yl)amino)but-2-en-1-one]"
9,> 7.00,"CN(C/C=C/C(=O)N1CC[C@@H](n2nc(-c3ccc(Oc4ccccc4)cc3)c3c(N)ncnc32)C1)C1CCOCC1 [Example 1k, (R,E)-1-(3-(4-amino-3-(4-phenoxyphenyl)-1H-pyrazolo[3,4-d]pyrimidin-1-yl)pyrrolidin-1-yl)-4-(methyl(tetrahydro-2H-pyran-4-yl)amino)but-2-en-1-one]"
10,> 7.00,"CN(C/C=C/C(=O)N1CCC[C@@H](n2nc(-c3ccc(Oc4ccccc4)cc3)c3c(N)ncnc32)C1)[C@H]1CCOC1 [Example 2j, (E)-1-((R)-3-(4-amino-3-(4-phenoxyphenyl)-1H-pyrazolo[3,4-d]pyrimidin-1-yl)piperidin-1-yl)-4-(methyl((S)-tetrahydrofuran-3-yl)amino)but-2-en-1-one]"
